From patent US20230067910A1, “NOVEL COMPOUNDS FOR THE DIAGNOSIS, TREATMENT AND PREVENTION OF DISEASES ASSOCIATED WITH THE AGGREGATION OF ALPHA-SYNUCLEIN” (MODAG GMBH, priority 2019, published 2023) come the findings set out here.

Structures are written as SMILES. Read-outs that look alike come from different tables or passages of the source. Some results are limits rather than exact numbers.

Broadly, the Kd is the free concentration of one partner at which half of the binding sites on the other are occupied at equilibrium, for simple one-to-one binding. As a reminder, the half-life is how long it takes for the measured level to halve.

Data set [1] concerns the target T1, aggregated alpha-synuclein (Homo sapiens, UniProt P37840).
T1 construct: made in house; host or cells: E. coli
In words: Saturation binding assay, protocol 2a, alpha-synuclein fibrils. To be noted: for Selectivity versus Abeta and tau46 fibrils: saturation binding to alpha-synuclein vs Abeta and tau46 fibrils. The method, then:
Alpha-synuclein and tau46 were purified from E. coli according to established protocols (Nuscher B, et al., J. Biol. Chem., 2004; 279(21):21966-75), Aβ1-42 was obtained from rPeptide, Watkinsville, Ga., USA. Fibrils were prepared by aggregation of recombinant protein via constant agitation. In detail, 70 μM of alpha-synuclein mixed with 100 mM NaCl in 50 mM Tris, pH 7.0+0.02% NaN3 were incubated at 1,400 rpm, 37° C. for 96 h. 10 μM of tau46 were incubated with 0.03 mg/ml heparin in 50 mM Tris, pH=7.0 at 1,000 rpm, 37° C. for 72 h. Aβ1-42 was solved in 20 mM NaPi, pH=8.0+0.2 mM EDTA+0.02% NaN3 (Deeg A A, et al., Biochim. Biophys. Acta, 2015; 1850(9): 1884-90; Goedert M, et al. Nature, 1996; 383(6600): 550-3).
Sonicated αSYN (0.04 μM) or tau46 (0.4 μM) or Aβ1-42 (6 μM) fibrils diluted in PBS were incubated with decreasing concentrations of [^3H]-labeled compound (48 nM or 24 nM-[…]) in 50 mM Tris-base, 10% ethanol, 0.05% Tween20, pH 7.4. To determine non-specific binding, the respective unlabeled compound (400 nM) was added to a duplicate set of binding reactions.
Assay plates were incubated under agitation at 37° C. for 2 h, covered by plastic foil (Resealable tape, PerkinElmer, Waltham, Mass., USA). Prior to harvesting, a filter (Printed filtermat B, PerkinElmer, Waltham, Mass., USA) was incubated with 5 mg/mL polyethylenimine (PEI, Poly(ethyleneimine) solution, Sigma Aldrich Chemie GmbH, Taufkirchen, Germany) at 4° C. for 30 min. After incubation, bound and free ligands were separated by vacuum filtration using a harvester (Filtermate harvester, PerkinElmer, Waltham, Mass., USA). The filter was washed three times with buffer cooled to 4° C. and subsequently dried in the microwave oven for 2 min at medium power. Melt-on scintillator sheets (MeltiLex™ B/HS, PerkinElmer, Waltham, Mass., USA) were molten into the filter using a heating plate set to 120° C. After solidifying at room temperature, the filter was sealed in a plastic bag (Sample bag for MicroBeta®, PerkinElmer, Waltham, Mass., USA). Accumulation of tritium was counted in a liquid scintillation counter (Wallac MicroBeta® TriLux, 1450 LSC & Luminescence Counter, PerkinElmer, Waltham, Mass., USA) immediately. Radioactivity was plotted against the increasing tritium-labeled compound or cold compound concentrations. Data points were fitted using nonlinear regression analysis in GraphPad Prism (GraphPad Software, Inc., Version 7.03, La Jolla, Calif., USA).
The fibril-binding saturation assay provides KD values. This assay is performed with directly radioactively labeled compounds (e.g. ^3H labeling). The saturation binding assays were performed using as target structures fibrillar aggregates produced from recombinant human alpha-synuclein, Aβ1-42, and tau46, respectively.

Data set [2] deals with H4 cells overexpressing full-length alpha-synuclein. Kind of data set: Cellular model of aggregated alpha-synuclein-dependent toxicity, full-length alpha-synuclein H4 cells. The class given is cell-based. To be noted: 10 μM compound, 100 μM FeCl3, 0.75% DMSO, 48 h; for inhibition at 10 µM: read-out: Change in fraction of condensed nuclei (rel. to DMSO control) [%].
Data set [3] in a line: In vivo biodistribution of [11C]-labeled compounds, small animal PET. Particulars: [11C]-labeled compound, intravenous tail vein, mice; for half-life: mouse, brain, read-out: Clearance half-life (brain). How it is done:
[^11C]-labeled compound 1 and compound 2, respectively, were injected intravenously in the tail vein of mice. Mice were then imaged in a small animal PET instrument. For both compounds, a good blood-brain-barrier penetration with SUV values >1.5 was observed.

Data set [4] relates to H4 cells overexpressing alpha-synuclein hemi-Venus fusion constructs (V1S+SV2). In words: Cellular model of aggregated alpha-synuclein-dependent toxicity, V1S+SV2 H4 cells. It is filed as cell-based. To be noted: 10 μM compound, 100 μM FeCl3, 0.75% DMSO, 48 h; for inhibition at 10 µM: read-out: Change in fraction of condensed nuclei (rel. to DMSO control) [%].
[5] abbreviates: fibril-binding saturation assay, summary statement, read-out: KD values, alpha-synuclein fibrils.
[6] abbreviates: saturation assay protocol 2a, [3H]-labeled compound, read-out: KD [nM] for aggregated alpha-synuclein.

With `CN(C)c1ccc(-c2cc(-c3ccnc(Br)c3)[nH]n2)cc1` [Compound 1, 4-[3-(4-dimethylamino-phenyl)-1H-pyrazol-5-yl]-2-bromopyridine], in data set [1] (setting [5]), the Kd is under 10 nM. The dissociation constant Kd in data set [1] (setting [6]) was under 2 nM. For the same compound, the “Selectivity versus Abeta and tau46 fibrils” value in data set [1] is given as “good to excellent selectivity”. Besides, in data set [2], the “Change in cell number (rel. to DMSO control) [%]” value (shortened to “Change in cell number … [%]”) is −27.3% and the inhibition at 10 µM came to 65.4%. In addition, in data set [3], the “Washout from the brain” value is on record as “rapid washout from the brain” and the half-life was 12 min. Further, in data set [4], the “Change in cell number … [%]” value is on record as −21.2% and the inhibition at 10 µM amounted to 11.7%.

In the case of `CNc1ccc(-c2cc(-c3ccnc(Br)c3)[nH]n2)cc1` [Compound 2, 4-[5-(2-bromopyridin-4-yl)-1H-pyrazol-3-yl]-N-methylaniline], the Kd in data set [1] (setting [5]) was under 10 nM. Moreover, the equilibrium dissociation constant (Kd) in data set [1] (setting [6]) is under 1 nM. For the same compound, the “Selectivity versus Abeta and tau46 fibrils” value in data set [1] was “good to excellent selectivity”. For the same compound, in data set [2], the “Change in cell number … [%]” value was −44.2% and the inhibition at 10 µM was found to be 79%. In data set [3], the “Washout from the brain” value is reported as “rapid washout from the brain” and the half-life turned out to be 9 min. Further, in data set [4], the “Change in cell number … [%]” value is listed as −25.8% and the inhibition at 10 µM stood at 49.4%.

Take `Fc1cc(-c2cc(-c3ccc4c(c3)OCO4)n[nH]2)ccn1` [Compound 12, 4-[3-(1,3-benzodioxol-5-yl)-1H-pyrazol-5-yl]-2-fluoropyridine]: the Kd in data set [1] (setting [5]) is under 10 nM; in data set [1] (setting [6]), 7 nM. For the same compound, the “Change in cell number … [%]” value is reported as −9.8% in data set [2] and −22.2% in data set [4]. Moreover, the inhibition at 10 µM in data set [2] was -28.4%; in data set [4] it was -24.9%.
